Test results as given in patent US4237225A, “Process for preparing tunicamycin” (priority 1978, dated 1980).

Columns and labels:
Type in all cases: cell-based
Staphylococcus aureus = assay: standard paper-disc inhibition test, zone of inhibition, Staphylococcus aureus; conditions: in vitro
From the text: (§1) The zones of inhibition, as determined in these tests, are shown below: […]

[1] = tested on: certain pathogenic organisms, particularly gram positive bacteria, fungi, and yeasts; assay: in vitro standard paper-disc inhibition tests (summary statement)
From the text: as §1

[2] = tested on: Saccharomyces pastorianus; assay: standard paper-disc inhibition test, zone of inhibition, Saccharomyces pastorianus; conditions: in vitro
From the text: as §1

Neurospora crassa = assay: standard paper-disc inhibition test, zone of inhibition, Neurospora crassa; conditions: in vitro
From the text: as §1

Bacillus subtilis = assay: standard paper-disc inhibition test, zone of inhibition, Bacillus subtilis; conditions: in vitro
From the text: as §1

Candida albicans = assay: standard paper-disc inhibition test, zone of inhibition, Candida albicans; conditions: in vitro
From the text: as §1

Micrococcus luteus = assay: standard paper-disc inhibition test, zone of inhibition, Micrococcus luteus; conditions: in vitro
From the text: as §1

[3] = Bacillus subtilis in minimal medium

CC(=O)NC1C(OC2OC(CC(O)C3OC(n4ccc(=O)[nH]c4=O)C(O)C3O)C(O)C(O)C2NC(=O)/C=C/CCCCCCCCCC(C)C)OC(CO)C(O)C1O (stereo not drawn) [Tunicamycin A]
Zone Diameter (Staphylococcus aureus): tr (trace (6.5-9 mm)) | growth inhibition of certain pathogenic organisms [1]: inhibit the growth | Zone Diameter [2]: 18 mm | Zone Diameter (Neurospora crassa): 10 mm | Zone Diameter (Bacillus subtilis; [3]): 35 mm | Zone Diameter (Bacillus subtilis; Bacillus subtilis): 25 mm | Zone Diameter (Candida albicans): 15 mm

CC(=O)NC1C(OC2OC(CC(O)C3OC(n4ccc(=O)[nH]c4=O)C(O)C3O)C(O)C(O)C2NC(=O)/C=C/CCCCCCCCCCCC(C)C)OC(CO)C(O)C1O (stereo not drawn) [Tunicamycin D]
Zone Diameter (Staphylococcus aureus): tr (trace (6.5-9 mm)) | growth inhibition of certain pathogenic organisms [1]: inhibit the growth | Zone Diameter [2]: 13 mm | Zone Diameter (Neurospora crassa): tr (trace (6.5-9 mm)) | Zone Diameter (Bacillus subtilis; [3]): 27 mm | Zone Diameter (Bacillus subtilis; Bacillus subtilis): 19 mm | Zone Diameter (Micrococcus luteus): tr (trace (6.5-9 mm)) | Zone Diameter (Candida albicans): 11 mm

CC(=O)NC1C(OC2OC(CC(O)C3OC(n4ccc(=O)[nH]c4=O)C(O)C3O)C(O)C(O)C2NC(=O)/C=C/CCCCCCCCC(C)C)OC(CO)C(O)C1O (stereo not drawn) [Tunicamycin C]
growth inhibition of certain pathogenic organisms [1]: inhibit the growth | Zone Diameter [2]: 16 mm | Zone Diameter (Neurospora crassa): 10 mm | Zone Diameter (Bacillus subtilis; [3]): 36 mm | Zone Diameter (Bacillus subtilis; Bacillus subtilis): 28 mm | Zone Diameter (Micrococcus luteus): tr (trace (6.5-9 mm)) | Zone Diameter (Candida albicans): 14 mm

CC(=O)NC1C(OC2OC(CC(O)C3OC(n4ccc(=O)[nH]c4=O)C(O)C3O)C(O)C(O)C2NC(=O)/C=C/CCCCCCCCCCC(C)C)OC(CO)C(O)C1O (stereo not drawn) [Tunicamycin B]
Zone Diameter (Staphylococcus aureus): tr (trace (6.5-9 mm)) | growth inhibition of certain pathogenic organisms [1]: inhibit the growth | Zone Diameter [2]: 23 mm | Zone Diameter (Neurospora crassa): 10 mm | Zone Diameter (Bacillus subtilis; [3]): 29 mm | Zone Diameter (Bacillus subtilis; Bacillus subtilis): 19 mm | Zone Diameter (Micrococcus luteus): 10 mm | Zone Diameter (Candida albicans): 12 mm
